{
  "source": "ChEMBL document CHEMBL4602633",
  "about": "“Discovery of coumarin-based selective aldehyde dehydrogenase 1A1 inhibitors with glucose metabolism improving activity” (Eur J Med Chem, 2020)",
  "key": {"[1]": {"assay": "Volume of distribution at steady state in […] plasma at 2.5 mg/kg, iv measured over 6 hrs by LC-MS/MS analysis", "assay_type": "ADME, organism-based", "conditions": "read-out: Vdss"}, "[2]": {"biological_target": "T1, Aldehyde dehydrogenase 1A1 (Homo sapiens, UniProt P00352)", "T1 sequence (P00352 whole entry)": "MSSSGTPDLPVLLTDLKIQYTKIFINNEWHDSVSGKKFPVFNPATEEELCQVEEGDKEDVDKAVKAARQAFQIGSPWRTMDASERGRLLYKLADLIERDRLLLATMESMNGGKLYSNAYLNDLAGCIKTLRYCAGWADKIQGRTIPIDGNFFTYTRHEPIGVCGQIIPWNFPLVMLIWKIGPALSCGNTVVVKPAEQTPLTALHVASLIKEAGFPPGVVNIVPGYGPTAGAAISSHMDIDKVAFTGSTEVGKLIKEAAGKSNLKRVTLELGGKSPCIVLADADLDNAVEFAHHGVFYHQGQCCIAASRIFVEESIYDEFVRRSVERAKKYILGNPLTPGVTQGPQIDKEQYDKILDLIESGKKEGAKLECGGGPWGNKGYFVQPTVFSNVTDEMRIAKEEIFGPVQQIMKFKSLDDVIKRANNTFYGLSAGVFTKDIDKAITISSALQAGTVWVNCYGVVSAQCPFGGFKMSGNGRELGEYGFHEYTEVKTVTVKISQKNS", "assay": "Inhibition of N-terminal Met/His6-tagged recombinant human ALDH1A1 (Ser2-Ser501 residues) expressed in Escherichia coli cells using propionaldehyde as substrate preincubated for 15 mins followed by substrate addition by spectrophotometric method"}, "[3]": {"test_system": "HepG2", "assay": "Inhibition of palmitic acid-induced glucose consumption impairment in human HepG2 cells at 2 to 5 uM after 24 hrs", "assay_type": "functional, cell-based"}, "[4]": {"biological_target": "T2, Aldehyde dehydrogenase 1A1 (Homo sapiens) (UniProt P00352)", "T2 sequence (whole entry)": "T1 sequence (P00352 whole entry)", "assay": "Inhibition of N-terminal Met/His6-tagged recombinant human ALDH1A1 (Ser2-Ser501 residues) expressed in Escherichia coli cells at 10 uM using propionaldehyde as substrate preincubated for 15 mins followed by substrate addition by spectrophotometric method relative to control"}, "[5]": {"biological_target": "T3, Retinaldehyde dehydrogenase 3 (Homo sapiens) (UniProt P47895)", "T3 sequence (whole entry)": "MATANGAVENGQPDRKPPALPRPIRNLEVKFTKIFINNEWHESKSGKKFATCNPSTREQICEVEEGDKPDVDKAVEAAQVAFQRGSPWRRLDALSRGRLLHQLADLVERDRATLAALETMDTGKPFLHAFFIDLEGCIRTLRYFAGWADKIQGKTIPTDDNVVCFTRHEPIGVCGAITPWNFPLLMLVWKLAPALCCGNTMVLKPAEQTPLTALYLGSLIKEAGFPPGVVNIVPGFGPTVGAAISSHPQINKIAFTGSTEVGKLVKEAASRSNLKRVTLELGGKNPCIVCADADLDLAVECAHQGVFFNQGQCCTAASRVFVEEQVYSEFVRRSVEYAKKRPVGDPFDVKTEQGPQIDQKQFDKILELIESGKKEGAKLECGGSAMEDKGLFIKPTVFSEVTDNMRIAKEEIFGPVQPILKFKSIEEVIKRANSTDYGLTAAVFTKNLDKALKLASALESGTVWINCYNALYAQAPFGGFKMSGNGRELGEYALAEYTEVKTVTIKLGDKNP", "assay": "Inhibition of recombinant N-terminal His6-tagged human ALDH1A3 (Met1 to Pro512 reisudes) expressed in Escherichia coli at 10 uM using propionaldehyde as substrate preincubated for 15 mins followed by substrate addition by spectrophotometric method relative to control"}, "[6]": {"assay": "Cmax in […] plasma at 2.5 mg/kg, iv after 5 mins by LC-MS/MS analysis", "assay_type": "ADME, organism-based", "set-up": "dose 2.5 mg/kg, route intravenous"}, "[7]": {"assay": "AUC in […] plasma at 2.5 mg/kg, iv measured over 6 hrs by LC-MS/MS analysis", "assay_type": "ADME, organism-based", "set-up": "time < 6 hr, dose 2.5 mg/kg, route intravenous"}, "[8]": {"assay": "Clearance in […] plasma at 2.5 mg/kg, iv measured over 6 hrs by LC-MS/MS analysis", "assay_type": "ADME, organism-based"}, "[9]": {"assay": "Half life in […] plasma at 25 mg/kg, po measured over 12 hrs by LC-MS/MS analysis", "assay_type": "ADME, organism-based"}, "[10]": {"biological_target": "T4, Retinal dehydrogenase 2 (Homo sapiens) (UniProt O94788)", "T4 sequence (whole entry)": "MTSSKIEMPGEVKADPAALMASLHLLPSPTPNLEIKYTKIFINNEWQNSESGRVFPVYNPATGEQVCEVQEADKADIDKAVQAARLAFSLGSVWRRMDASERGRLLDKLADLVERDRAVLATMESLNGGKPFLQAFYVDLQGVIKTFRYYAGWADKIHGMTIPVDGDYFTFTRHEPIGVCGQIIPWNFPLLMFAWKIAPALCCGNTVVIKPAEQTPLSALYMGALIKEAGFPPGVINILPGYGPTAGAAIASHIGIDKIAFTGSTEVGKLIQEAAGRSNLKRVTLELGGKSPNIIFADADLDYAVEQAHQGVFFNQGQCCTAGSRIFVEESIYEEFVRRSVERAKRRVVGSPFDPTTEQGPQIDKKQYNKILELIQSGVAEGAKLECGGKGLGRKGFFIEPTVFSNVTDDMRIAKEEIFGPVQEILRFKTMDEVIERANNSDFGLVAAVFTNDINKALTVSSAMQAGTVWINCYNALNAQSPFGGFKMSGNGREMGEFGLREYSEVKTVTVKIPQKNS", "assay": "Inhibition of recombinant N-terminal His6-tagged human ALDH1A2 (Met1 to Ser518 residues) expressed in Escherichia coli at 10 uM using propionaldehyde as substrate preincubated for 15 mins followed by substrate addition by spectrophotometric method relative to control"}, "[11]": {"assay": "Half life in human liver microsomes at 2 ug/ml preincubated for 5 mins followed by NADPH addition and measured up to 45 mins by LC-MS/MS analysis", "assay_type": "ADME, Microsome"}, "[12]": {"biological_target": "T5, Aldehyde dehydrogenase, dimeric NADP-preferring (Homo sapiens) (UniProt P30838)", "T5 sequence (whole entry)": "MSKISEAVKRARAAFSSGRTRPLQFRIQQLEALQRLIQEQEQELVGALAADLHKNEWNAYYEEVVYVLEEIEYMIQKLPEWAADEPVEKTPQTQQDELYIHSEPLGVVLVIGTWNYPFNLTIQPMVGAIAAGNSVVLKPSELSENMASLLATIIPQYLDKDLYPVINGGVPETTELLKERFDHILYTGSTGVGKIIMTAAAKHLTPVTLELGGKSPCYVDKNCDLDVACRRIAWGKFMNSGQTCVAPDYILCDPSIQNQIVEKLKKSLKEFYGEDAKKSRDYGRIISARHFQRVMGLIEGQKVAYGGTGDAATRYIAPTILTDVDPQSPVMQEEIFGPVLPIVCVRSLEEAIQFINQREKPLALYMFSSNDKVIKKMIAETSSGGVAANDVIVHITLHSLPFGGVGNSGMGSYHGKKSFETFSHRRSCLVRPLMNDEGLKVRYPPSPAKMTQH", "assay": "Inhibition of recombinant C-terminal His6-tagged human ALDH3A1 (Met1 to His453 residues) expressed in mammalian expression system at 10 uM using benzaldehyde as substrate preincubated for 15 mins followed by substrate addition by spectrophotometric method relative to control"}, "[13]": {"assay": "AUC in […] plasma at 25 mg/kg, po measured over 12 hrs by LC-MS/MS analysis", "assay_type": "ADME, organism-based", "set-up": "time < 12 hr, dose 25 mg/kg, route oral"}, "[14]": {"assay": "Oral bioavailability in […] at 25 mg/kg measured over 12 hrs by LC-MS/MS analysis", "assay_type": "ADME, organism-based", "conditions": "in vivo"}, "[15]": {"assay": "Half life in […] plasma at 2.5 mg/kg, iv measured over 6 hrs by LC-MS/MS analysis", "assay_type": "ADME, organism-based"}, "[16]": {"assay": "Cmax in […] plasma at 25 mg/kg, po measured over 12 hrs by LC-MS/MS analysis", "assay_type": "ADME, organism-based", "set-up": "dose 25 mg/kg, route oral"}, "[17]": {"biological_target": "T6, Aldehyde dehydrogenase, mitochondrial (Homo sapiens) (UniProt P05091)", "T6 sequence (whole entry)": "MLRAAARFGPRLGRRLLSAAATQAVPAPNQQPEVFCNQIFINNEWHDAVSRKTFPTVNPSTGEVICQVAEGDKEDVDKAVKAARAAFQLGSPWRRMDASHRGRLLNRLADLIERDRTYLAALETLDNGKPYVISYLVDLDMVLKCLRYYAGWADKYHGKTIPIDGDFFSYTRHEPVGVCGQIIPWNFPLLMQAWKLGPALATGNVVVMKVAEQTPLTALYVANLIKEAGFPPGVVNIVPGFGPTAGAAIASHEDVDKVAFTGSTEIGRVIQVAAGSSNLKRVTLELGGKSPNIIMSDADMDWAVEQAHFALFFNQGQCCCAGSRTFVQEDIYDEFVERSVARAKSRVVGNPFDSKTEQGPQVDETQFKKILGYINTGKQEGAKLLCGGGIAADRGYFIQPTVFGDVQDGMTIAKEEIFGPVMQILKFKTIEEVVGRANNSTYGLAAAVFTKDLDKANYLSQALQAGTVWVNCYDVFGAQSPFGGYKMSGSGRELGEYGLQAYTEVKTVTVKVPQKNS", "assay": "Inhibition of recombinant human ALDH2 at 10 uM using propionaldehyde as substrate preincubated for 15 mins followed by substrate addition by spectrophotometric method relative to control"}},
  "note": "Calls of active or inactive are those of the source. No cut-off for these calls is given here.",
  "data": [
    {"smiles": "CCN(C(=O)CCN1CCN(C(=O)c2ccco2)CC1)c1ccc2c(C)cc(=O)oc2c1", "values": [
      {"measurement": "Vd", "setting": "[1]", "result": 0.843, "unit": "L/kg"},
      {"measurement": "IC50", "setting": "[2]", "result": 3.87, "unit": "µM"},
      {"measurement": "inhibition", "setting": "[3]", "result": "Active"},
      {"measurement": "inhibition", "setting": "[4]", "result": 61.8, "unit": "%"},
      {"measurement": "inhibition", "setting": "[5]", "result": 2.59, "unit": "%"},
      {"measurement": "Cmax", "setting": "[6]", "result": 2840, "unit": "ng/mL"},
      {"measurement": "AUC at 6 h", "setting": "[7]", "result": 1540, "unit": "ng·h/mL"},
      {"measurement": "clearance", "setting": "[8]", "result": 26.8, "unit": "mL/min/kg"},
      {"measurement": "half-life", "setting": "[9]", "result": 108, "unit": "min"},
      {"measurement": "inhibition", "setting": "[10]", "result": 2.13, "unit": "%"},
      {"measurement": "half-life at 2 ug/ml", "setting": "[11]", "result": 38.5, "unit": "min"},
      {"measurement": "inhibition", "setting": "[12]", "result": 1.89, "unit": "%"},
      {"measurement": "AUC at 12 h", "setting": "[13]", "result": 6470, "unit": "ng·h/mL"},
      {"measurement": "bioavailability", "setting": "[14]", "result": 41.9, "unit": "%"},
      {"measurement": "half-life", "setting": "[15]", "result": 45.4, "unit": "min"},
      {"measurement": "Cmax", "setting": "[16]", "result": 3320, "unit": "ng/mL"},
      {"measurement": "inhibition", "setting": "[17]", "result": 2.24, "unit": "%"}
    ]}
  ]
}
